These results are taken from PubChem BioAssay (NCI).

Each structure is given as a SMILES string. Values joined by “and” are separate entries in the source; they are usually repeats but may differ in a detail not shown here. Identical values can stand only once.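 All cell lines were grown in 96-well plates and treated with compound for 48 hours. The concentration for 50% growth inhibition is given as GI50. TGI: concentration producing complete growth inhibition.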

Holding throughout (assay): NCI-60 cell line screen, 48 h
Test [1] has as its system DMS 273 small cell lung.
Test [2] has as its system SK-OV-3 ovarian.
Test [3] concerns 786-0 renal.
Test [4] has as its system TK-10 renal.
Test [5] concerns RPMI-8226 leukemia.
Test [6] has as its system A549 NSCLC.
The subject of test [7] is HOP-18 NSCLC.
Test [8] relates to CAKI-1 renal.
The subject of test [9] is MDA-MB-231 breast.
Test [10] has as its system HS 578T breast.

With `CCOC(=O)C[C@@]12CCCNC1(C)CCc1ccccc12` (stereo not given in full), the TGI in test [1], in test [2], in test [3], in test [4], in test [5] and in test [6] was more than 100 µM throughout. The compound further came in with a TGI in test [7] of more than 100 µM.

`O=C1C(c2ccccc2)=C(c2ccccc2)[C@H](c2ccccc2)[C@]1(Cc1nnn(-c2ccc([N+](=O)[O-])cc2)c1N1CCOCC1)c1ccccc1`: the TGI in test [1], in test [2], in [3], in [4], in test [8] and in test [5] was more than 37.5 µM throughout. Also, the TGI in test [6] and in test [7] was more than 37.5 µM in each case.

In the case of `Cc1nnc(N=Nc2c(O)[nH]c3ccccc23)n1N`, the TGI in test [1], in test [2], in test [3], in test [4], in [8] and in [5] was more than 100 µM throughout. Moreover, the TGI in test [6] and in test [7] was more than 100 µM in each case.

Turning to `COc1ccc(C2NCCc3c2[nH]c2ccccc32)cc1` (stereo not given), the TGI in [2], in test [3], in test [4], in test [5], in test [6] and in test [7] was more than 100 µM in each case.

`COC(=O)C1(F)C(=O)NC(=O)NC1OC` (stereo not given): the TGI in test [1], in [2], in test [3], in [4], in [8] and in test [5] was more than 100 µM in each case. For the same compound, the TGI in [6] and in test [7] was more than 100 µM throughout.

Turning to `NS(=O)(=O)c1ccc(NC(=O)c2cccn3c(=O)c4ccccc4nc23)cc1`, the TGI in test [2], in [3], in test [4], in [8], in test [5] and in test [6] was more than 100 µM in each case. In addition, the TGI in test [7] was more than 100 µM.

Consider `CC(=O)OCCC(O[Si](c1ccccc1)(c1ccccc1)C(C)(C)C)C(C)(C)O` (stereo not given), for which the TGI was more than 100 µM in test [1]; more than 100 µM in test [2]; 77.2 µM in [3]; more than 100 µM in test [4]; 63 µM in [5]; more than 100 µM in [6]. Besides, the TGI in test [7] is 91.4 µM.

`C/C(=N/NC(=O)CC(=O)N(C(=O)c1ccccc1Cl)c1ccc(C)cc1)c1cc2ccccc2oc1=O`: the TGI in [1], in test [3], in [4], in test [8], in test [6] and in [7] was more than 100 µM in each case.

On to `CC1(C)OC(COCCOCCCCCO)C(COCCOCCCCCO)O1` (stereo not given), for which the TGI in test [1], in [2], in test [3], in [4], in test [8] and in test [5] was more than 100 µM throughout. Also, the TGI in [6] and in test [7] was more than 100 µM each time.

On to `Cc1ccccc1NC(=O)C(=O)CC(=O)c1ccc([N+](=O)[O-])cc1`, for which the TGI in test [1], in test [2], in [3], in [4], in test [8] and in test [5] was more than 100 µM throughout. Further, the TGI in test [6] and in [7] was more than 100 µM each time.

As for `CC1=C(C(=O)CC(=O)C(=O)NC2C3CC4CC(C3)CC2C4)Sc2ccccc2N1` (stereo not given), the TGI is more than 100 µM in test [1]; more than 31.6 µM in test [2]; more than 100 µM in test [3]; more than 100 µM in [4]; more than 100 µM in test [8]; more than 100 µM in test [5]. Moreover, the TGI in test [6] and in test [7] was more than 100 µM in each case.

Take `C/C(=N/O)c1ccc2c(c1)C(=NO)c1cc(/C(C)=N/O)ccc1-2`: the TGI was more than 100 µM in test [1]; 36.5 µM in test [2]; 42.3 µM in test [3]; more than 100 µM in [8]; more than 100 µM in [5]; 68.6 µM in test [6]. This compound also had a TGI in [7] of 27.4 µM.

With `CC(C)(CO)N=Cc1ccccc1[O-].CC(C)(CO)N=Cc1ccccc1[O-].[Co+2]`, the GI50 in [1] was more than 85.9 µM; in [2] it was more than 100 µM; in test [3], 42.1 µM; in [4], 81.3 µM; in [9] it was more than 74.9 µM; in test [8], 53.7 µM. Also, the GI50 is 30.2 µM in test [5], more than 100 µM in [6], more than 100 µM in [10] and 29.4 µM in test [7]. For the same compound, the TGI in test [1], in [2], in [3], in test [4], in [9] and in [8] was more than 100 µM each time. For the same compound, the TGI in [5] was more than 93 µM; in test [6] it was more than 100 µM; in test [10], more than 100 µM; in [7], more than 100 µM.

As for `COc1cc([C@H]2c3[nH]c4ccccc4c3C[C@H]3COC(=O)N32)cc(OC)c1O`, the TGI in [1] was determined as 44.2 µM; in test [3] it was 10.7 µM; in [4], 27 µM; in [9], 49.8 µM; in test [8], 46.8 µM; in test [5] it was 11.1 µM. Also, the TGI is 29.5 µM in test [6], 44.7 µM in [10] and more than 100 µM in test [7].

With `C=CC1=CC(C)C[C@]1(O)C(=O)OC` (stereo not given in full), the GI50 in test [1], in [3], in test [4], in [8] and in [6] was more than 100 µM in each case. Moreover, the TGI was more than 100 µM in [2], less than 0.01 µM in [5] and more than 100 µM in test [7].

With `CC1(C)CC(=O)c2c(oc3cc(O)c(O)cc23)C1`, the TGI in test [1] is more than 100 µM; in test [2], more than 100 µM; in test [3] it was more than 100 µM; in test [4], more than 100 µM; in test [8], 76.6 µM; in test [5] it was 80.4 µM. Moreover, the TGI in test [6] and in [7] was more than 100 µM in each case.

Regarding `COC(=O)c1cc2c3c(ccc2[nH]1)N(C(=O)c1cc2c4c(ccc2[nH]1)N(C(=O)c1cc2c5c(ccc2[nH]1)N(C(N)=O)CC5)CC4)CC3`, the TGI is more than 100 µM in [1]; 8.02 µM in test [2]; more than 31.9 µM in test [3]; 47 µM in test [4]; 8.95 µM in test [8]; more than 100 µM in test [5]. The TGI in test [6] and in test [7] was more than 100 µM throughout.

On to `COc1nc2c(c(O)c(C)c(=O)n2OC2OC(COC(C)=O)C(OC(C)=O)C(OC(C)=O)C2OC(C)=O)c(=O)n1C` (stereo not given), for which the TGI in test [1], in [3], in test [4] and in test [6] was more than 100 µM throughout.

In the case of `Cc1cc(NC(=O)NC(=O)c2ccccc2N(C)C)ccc1Oc1ncc(Br)cn1`, the TGI in test [2] was 16.8 µM; in test [3], 44.6 µM; in [4] it was more than 68.1 µM; in [9], 52.5 µM; in test [8], more than 100 µM; in [5], 39.4 µM. The TGI is more than 63.1 µM in test [6], more than 100 µM in test [10] and more than 100 µM in test [7]. Also, the GI50 was 0.322 µM in test [3]; 0.984 µM in test [4]; 0.588 µM and 0.402 µM in [8]; 0.517 µM in test [5]; 0.584 µM in test [6].

Turning to `NC(=O)c1c[se]c(C2OC(COP(=O)(O)CP(=O)(O)OCC3OC(n4cnc5c(N)ncnc54)C(O)C3O)C(O)C2O)n1` (stereo not given), the TGI in test [1], in test [2], in test [3], in test [8], in test [6] and in test [7] was more than 100 µM in each case.

Turning to `CCCCCCCCCC(=O)Oc1cccc2onc(C)c12`, the TGI in [1], in test [2], in test [3], in [4], in test [8] and in [5] was more than 100 µM throughout. The TGI in [6] and in test [7] was more than 100 µM throughout.

For the compound `CC[P+]1(CC)CCCC1`, the TGI in test [1], in test [2], in test [3], in test [4], in test [8] and in test [5] was more than 100 µM in each case. The TGI in test [6] and in test [7] was more than 100 µM each time.

As for `Cc1ccc(/C=C2\CNC/C(=C\c3ccc(C)cc3)C2=O)cc1`, the TGI in [1] is 2.49 µM; in [2] it was 6.9 µM and 22.1 µM; in test [3], 2.79 µM and 3.89 µM; in test [4], 2.2 µM and 13.9 µM; in test [9], more than 24.6 µM; in test [8], 4.49 µM and 7.54 µM. In addition, the TGI in test [5] was 0.69 µM; in test [6], 2.9 µM and > 27.1 µM; in test [10] it was more than 100 µM. Besides, the GI50 in test [2] was 3.81 µM; in test [4], 0.509 µM; in test [8], 1.63 µM; in test [6], 0.861 µM.

In the case of `O=[N+]([O-])C1C2C=CC(C2)[C@H]1c1ccc(Cl)cc1Cl` (stereo not given in full), the TGI is more than 100 µM in test [1]; more than 100 µM in test [3]; more than 100 µM in [4]; 69.1 µM in test [5]; more than 100 µM in test [6].

As for `c1ccc(NC[Si]23OCCN(CCO2)CCO3)cc1`, the TGI in test [1], in test [2], in test [3], in test [4], in test [8] and in test [5] was more than 100 µM in each case. The TGI in test [6] and in test [7] was more than 100 µM throughout.

`CC(C)(C)c1cc(CCC(=O)Nc2ccc(Cl)cc2Cl)nc(N)n1`: the TGI in [2], in test [3], in test [8], in test [6] and in test [7] was more than 100 µM throughout.

Consider `C[N+](C)=c1nc(N2CCOCC2)ss1`, for which the TGI in test [1], in [2], in test [3], in test [4], in test [8] and in test [6] was more than 100 µM throughout.

In the case of `COc1ccc(CC2=NCCc3cc(OC)c(OC)cc32)cc1Br`, the TGI in [1] was 33.7 µM; in test [2], more than 100 µM; in test [3], more than 100 µM; in test [4], more than 100 µM; in test [8], 59.3 µM; in test [6] it was more than 100 µM. In [7], this compound displayed a TGI of more than 100 µM.

In the case of `c1ccc(CC(NCCNC(Cc2ccccc2)c2ccccc2)c2ccccc2)cc1` (stereo not given), the GI50 is 1.3 µM in test [2]; 0.383 µM in test [3]; 1.46 µM in test [4]; 0.331 µM in test [9]; 0.456 µM in test [8]; 0.243 µM in test [5]. The GI50 in test [6] is 1.1 µM; in [10], 1.64 µM. Moreover, the TGI in [2] was determined as 3.93 µM; in [3], 1.59 µM; in [4], 4.21 µM; in test [9], 1.24 µM; in [8], 2.44 µM; in [5], 0.524 µM. Moreover, the figures for the TGI in test [6] and in test [10] were 4.69 µM and 4.12 µM, respectively.

Take `NC(=O)C(=O)n1ncc(Cl)c(Cl)c1=O`: the TGI is more than 100 µM in test [1]; more than 100 µM in [2]; 58.5 µM in test [3]; 50.8 µM in test [4]; 43.5 µM in test [8]; 51.9 µM in test [5]. For the same compound, the TGI in test [6] was more than 100 µM; in [10], more than 100 µM; in test [7], 35.1 µM.

As to `CCOC1=C2NC(Cc3ccc(F)cc3)=NC2C(=O)c2ccccc21` (stereo not given), the TGI in test [1] was 81.3 µM; in [2], more than 100 µM; in test [3], 47.8 µM; in test [4] it was more than 100 µM; in test [5], 37.8 µM.
